Measurements taken from PMC5983617, “Hypouricemic Effect of 2,5-Dihydroxyacetophenone, a Computational Screened Bioactive Compound from Ganoderma applanatum, on Hyperuricemic Mice” (International Journal of Molecular Sciences, 2018).

Biological target: T1, XOD (xanthine oxidase) (Bos taurus, UniProt P80457)
T1 construct: gene XDH; oxidase form
Experiment: xanthine oxidation, absorbance at […] nm, microplate reader
Assay type: biochemical

T1 sequence (P80457 2-1332): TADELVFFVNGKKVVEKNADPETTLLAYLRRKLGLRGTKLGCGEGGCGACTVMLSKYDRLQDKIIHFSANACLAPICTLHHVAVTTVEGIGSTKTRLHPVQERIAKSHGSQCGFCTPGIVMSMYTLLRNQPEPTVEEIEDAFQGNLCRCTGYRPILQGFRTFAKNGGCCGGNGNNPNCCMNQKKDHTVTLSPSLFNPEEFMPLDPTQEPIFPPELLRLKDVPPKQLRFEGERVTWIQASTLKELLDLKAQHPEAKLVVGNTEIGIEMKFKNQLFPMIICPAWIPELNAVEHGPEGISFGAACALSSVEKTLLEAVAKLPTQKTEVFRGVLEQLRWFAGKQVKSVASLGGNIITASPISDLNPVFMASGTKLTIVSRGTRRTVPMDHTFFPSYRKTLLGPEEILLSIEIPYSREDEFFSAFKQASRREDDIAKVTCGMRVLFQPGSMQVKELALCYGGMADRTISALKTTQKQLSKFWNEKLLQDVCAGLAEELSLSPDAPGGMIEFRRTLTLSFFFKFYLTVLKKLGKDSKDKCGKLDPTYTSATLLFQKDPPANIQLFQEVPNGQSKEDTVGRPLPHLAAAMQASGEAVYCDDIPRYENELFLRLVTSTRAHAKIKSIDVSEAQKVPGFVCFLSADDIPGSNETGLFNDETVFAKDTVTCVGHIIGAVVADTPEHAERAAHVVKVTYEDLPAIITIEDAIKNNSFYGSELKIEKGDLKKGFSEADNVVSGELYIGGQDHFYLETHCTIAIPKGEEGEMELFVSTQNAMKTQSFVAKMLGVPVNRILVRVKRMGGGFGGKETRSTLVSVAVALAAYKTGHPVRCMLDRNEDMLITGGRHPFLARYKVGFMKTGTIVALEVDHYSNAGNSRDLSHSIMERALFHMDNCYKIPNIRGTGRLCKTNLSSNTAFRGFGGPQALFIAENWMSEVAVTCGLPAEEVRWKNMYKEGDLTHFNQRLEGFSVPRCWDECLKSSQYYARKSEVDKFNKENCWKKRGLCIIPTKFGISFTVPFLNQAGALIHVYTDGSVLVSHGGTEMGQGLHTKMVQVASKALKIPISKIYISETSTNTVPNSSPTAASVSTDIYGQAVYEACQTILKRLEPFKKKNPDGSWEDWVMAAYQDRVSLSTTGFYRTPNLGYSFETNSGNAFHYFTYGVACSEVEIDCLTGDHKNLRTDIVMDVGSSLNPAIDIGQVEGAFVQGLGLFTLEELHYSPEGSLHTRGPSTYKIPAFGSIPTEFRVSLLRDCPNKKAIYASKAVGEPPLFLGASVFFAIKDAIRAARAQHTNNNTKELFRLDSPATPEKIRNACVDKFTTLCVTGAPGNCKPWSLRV

With `CC(=O)c1cc(O)ccc1O` [DHAP] the IC50 was 8.12 ± 0.27 µM.
